Assays:
Format in all cases: in vivo
blood glucose [1] = assay: Effect on blood glucose level in glucose-loaded C57/BL/6J mice; conditions: C57/BL/6J mice fasted overnight, 200 μl of 40% glucose plus 2 μg peptide into abdominal cavity, 0, 30, 60, 120 min, FIG. 11
Procedure: Healthy C57/BL/6J mice were purchased from Shanghai Laboratory Animal Center of Chinese Academy of Sciences. The mice were divided into four groups with 6 mice in each group. Mice fasted overnight were injected by abdominal cavity. The placebo group were injected with 200 μl of 40% glucose solution, the testing group were injected with 200 μl of 40% glucose solution plus 2 μg of GLP-1 (7-36), the positive control group(I) were injected with 200 μl of 40% glucose solution plus 2 μg of GLP-1 (7-36)NH2 (Sigma), and the positive control group(II) were injected with 200 μl of 40% glucose solution plus 2 μg of GLP-1 (7-37) (Sigma). The moment when the animals received the injection was set as time zero. After the injection, 20 μl of blood sample were immediately drawn from optic sinus of each mouse with a heparin-treated capillary. The blood samples were immediately mixed with 300 μl of saline in a micro-centrifuge tube. The mixture was centrifuged at 3000 rpm to remove erythrocytes. The serum was used to measure serum glucose concentration. This procedure was repeated at the 30th, 60th and 120th minutes.
The serum blood glucose concentration was measured by a commercial kit (Shanghai Institute of Biological Products, Chinese Ministry of Health).

blood glucose [2] = assay: Comparison of reducing blood glucose effect in Kun Ming mice; conditions: fasted 4 hours, glucose 2 g/kg intraperitoneally, 50 ng/Kg peptide, 30 minutes; for Rate (reduction of blood glucose): versus control
Procedure: Kun Ming mice (40 in total, male, 23 g body weight/mouse) were divided into 4 groups. After fasting for 4 hours, each mouse was injected with glucose (2 g/kg body weight) intraperitoneally. Then mice in the testing group were rejected with 50 ng/Kg of GLP-1 (7-36), GLP-1 (7-36)NH2 (BACHEM) and GLP-1 (7-37)COOH (BACHEM) respectively, while mice in the control group were rejected with 0.9% NaCl saline. Blood sample was collected at the zero time and 30 minutes later for the analysis.

insulin secretion = assay: Effect on insulin secretion in mice (serum insulin, radioimmunoassay); conditions: healthy C57/BL/6J mice, 2 μg injected into abdominal cavity, blood at 0, 5, 15, 30, 60 min, FIG. 9
Procedure: Healthy C57/BL/6J mice were purchased from the Shanghai Laboratory Animal Center of Chinese Academy of Sciences. The mice were divided into three groups with 6 mice in each group. The placebo group of mice received 200 μl of saline injected into their abdominal cavity, while the testing group received 2 μg of GLP-1 (7-36) and the positive control group received 2 μg of GLP-1 (7-36)NH2 (BACHEM). The moment when the animals received the injection was set as time zero. 50 μl of blood were drawn from the veins at angulus oculi with a graduated capillary which had been rinsed with heparin and then dried. The blood samples were subsequently drawn at 5, 15, 30 and 60 minutes. The blood samples were immediately mixed with 50 μl of saline in a micro-centrifuge tube. The mixture was centrifuged at 3000 rpm to remove erythrocytes. The serum was used to measure insulin concentration.
The radioimmunoassay kit (Shanghai Institute of Biological Products, Chinese Ministry of Health) for insulin was used to measure the effect of GLP-1 (7-36) on insulin secretion. […] This observation indicates the administration of either GLP-1 (7-36) or GLP-1 (7-36)NH2 enhances the secretion of insulin in mice.

C-peptide secretion = assay: Effect on C-peptide secretion in mice (serum C-peptide, radioimmunoassay); conditions: C57/BL/6J mice, 10 μg injected into abdominal cavity, FIG. 10
Procedure: As described in Example 14, C57/BL/6J mice were divided into two groups with the placebo group receiving 200 μl of saline injected into abdominal cavity and the testing group receiving 10 μg of GLP-1 (7-36). A radioimmunoassay kit (Shanghai Institute of Biological Products, Chinese Ministry of Health) for C-peptide was used to measure the effect of GLP-1 (7-36) on C-peptide secretion.

| Substance | serum blood glucose concentration (blood glucose [1]) | Blood Glucose (blood glucose [2]) | Rate (reduction of blood glucose) (blood glucose [2]) | serum insulin concentration (insulin secretion) | serum C-peptide concentration (C-peptide secretion) |
| --- | --- | --- | --- | --- | --- |
| GLP-1 (7-37): natural GLP-1 form of 31 amino acid residues; positive control from Sigma or BACHEM (HAEGTFTSDVSSYLEGQAAKEFIAWLVKGRG; homo sapiens) | no obvious rise from the normal level | 6.77 mmol/L | 50.7% | – | – |
| His-Ala-Glu-Gly-Thr-Phe-Thr-Ser-Asp-Val-Ser-Ser-Tyr-Leu-Glu-Gly-Gln-Ala-Ala-Lys-Glu-Phe-Ile-Ala-Trp-Leu-Val-Lys-Gly-Arg−OH (HAEGTFTSDVSSYLEGQAAKEFIAWLVKGR; homo sapiens) [GLP-1 (7-36)] | no obvious rise from the normal level | 6.51 mmol/L | 50.4% | significant increase | significant increase |
| GLP-1 (7-36)NH2: natural GLP-1 form of 30 amino acid residues with C-terminal amidated; positive control from BACHEM or Sigma | no obvious rise from the normal level | 8.69 mmol/L | 36.8% | significant increase | – |

Source: patent US7544512B2, “Method of producing insulinotropic GLP-1 (7-36) polypeptide and/or GLP-1 analogs” (Shanhai Hua Yi Bio-Tech Lab, priority 2001, dated 2009)
